Assay results as given in patent US20250320215A1, “SALTS OF N-[4-(4-[[2-(DIMETHYLAMINO)ETHYL]AMINO]-3-METHYL-1H-PYRAZOLO[3,4-D]PYRIMIDIN-6-YL)-2-FLUOROPHENYL]-2,5-DIFLUOROBENZENESULFONAMIDE AND CRYSTALLINE FORMS THEREOF” (THRYV THERAPEUTICS INC, priority 2022, published 2025).
Values after ≈ are worked out from the molar mass of the structure shown.

What was measured:
Format in all cases: physicochemical
[1] = pKa values and protonation state of Compound 1
[2] = Solubility estimates by aliquot addition method in various solvents; conditions: thermodynamic from solid
Experimental: Solubility estimates were conducted using an aliquot addition method in a variety of solvents at ambient temperature.
Samples with solvents with poor solubility were heated at 50° C.

[3] = Solubility of the salts in water / MTBE
Experimental: Solubility in water is >25 mg/mL.

[4] = Dynamic vapor sorption/desorption (DVS) with post-DVS XRPD; conditions: for Post-DVS XRPD: XRPD after DVS versus before; for Reversibility (DVS): sorption/desorption
Experimental: Moisture sorption/desorption data were collected on a DVS Intrinsic. 7-20 mg of a sample was placed into a tared sample chamber and automatically weighed. The anhydrates were analyzed with the following setting parameters:
DVS experiments (FIGS. 17, 19, 21, 34, 35, 48 and 50) and XRPD post-DVS experiments (FIGS. 18, 20, 22, 36, 49 and 51) were conducted in order to study the deliquescence behaviour of the crystalline salts upon expose to humidity.

[5] = Water activity study (competition of forms, XRPD); conditions: room temperature
Experimental: Water activity study was performed using Compound 3 Form B (anhydrate) as the input material in EtOH/Water with different water content at RT. About 5 mg of Compound 3, Form B was used to prepare saturated solutions and the solutions were filtered by syringe at RT. 5 mg of Compound 3, Form D were added in the 1 mL of filtrate, and the suspension was slurried at RT for 3 and 7 days. The solids collected after filtration were analyzed by XRPD.
Protocol: excess amount of Compound 4 Form B was used to prepare saturated solutions. 6-8 mg each of Compound 4 Form B and Form D were added in the solutions. The suspension was slurried at room temperature for the corresponding times. Residual solids were collected by filtration with syringe filter, and characterized by XRPD.

[6] = Comparative study (interconversion and water activity) between crystalline forms; conditions: Compound 3: Forms B, C, D, E, non-aqueous and aqueous systems; Compound 4: Forms B to G
Experimental: (capped) and 40° C. with 75% relative humidity (open).
Form D is stable at high water activity (0.16≤aW≤0.90). Solid stability study indicated Form D was physically and chemically stable at 60° C. (close) and 40° C. at 75% RH for 7 days.

[7] = Solid stability testing (HPLC purity and XRPD); conditions: for Solid stability: 60° C. (capped/close) and 40° C./75% RH (open) for 7 days; for Purity, Initial T0 / Purity - 7 days, 60° C. / Purity - 7 days, 40° C./75% RH: HPLC; for Purity, Initial T0 / XRPD, Initial T0: before storage; for Purity - 7 days, 60° C. / XRPD - 7 days, 60° C.: capped/closed vial; for Purity - 7 days, 40° C./75% RH / XRPD - 7 days, 40° C./75% RH: open
Experimental: HPLC analysis were performed with an Agilent HPLC 1260 series instrument. HPLC method for stability testing is as follows:
Solid stability testing of Compound 3, Form D was evaluated at the conditions of 60° C. (capped) and 40° C./75% RH (open) for 7 days. Polymorphic form and purity were analyzed by XRPD and HPLC, respectively. […] (capped) and 40° C./75% RH (open) for 7 days.
Solid stability testing of Compound 4 Form B and Form D were evaluated at the conditions of 60° C. (vial close) and 40° C./75% RH (vial open) for 7 days. Polymorphic form and purity were checked by XRPD and HPLC, respectively.

[8] = Thermal treatment (heat-cool cycle by DSC, XRPD of resulting solids)
Experimental: Compound 3, Form E was treated with heat-cool cycle by DSC. The resulted solids were characterized by XRPD. Compound 3, Form E, was converted to Compound 3, Form D after desolvation.
Compound 4 Form B was treated with heat-cool cycle by DSC. The resulted solids were checked by XRPD. […] The water was excluded at elevated temperature, then entered in the crystal lattice again at room temperature.
Compound 4 Form C and trace Form B was treated with heat-cool cycle by DSC. The resulted solids were checked by XRPD. The sample was converted to low crystalline (LC) Form B after heating to 175° C.
Compound 4 Form D was treated with heat-cool cycle by DSC. The resulted solids were checked by XRPD. The sample kept unchanged after heating to 140° C., but was converted to a new low crystalline form after heating to 210° C. which was assigned to Form F.

[9] = Drying, physical stability of the form
Experimental: After being subjected to drying in a vacuum oven for 1 day at 62-72° C., Form A was characterized by XRPD (FIG. 22: pre-DVS) and proton NMR (FIG. 15).
Form E was obtained by slow cooling crystallization in NMP (FIG. 43). The unstable form has not been characterized further. A clear solution of Compound 4, Form B was dissolved (30 mg) in NMP at 50° C. and cooled from 50° C. to 2° C.

Cc1n[nH]c2nc(-c3ccc(NS(=O)(=O)c4cc(F)ccc4F)c(F)c3)nc(NCCN(C)C)c12 [Compound 1, N-[4-(4-[[2-(dimethylamino)ethyl]amino]-3-methyl-1H-pyrazolo[3,4-d]pyrimidin-6-yl)-2-fluorophenyl]-2,5-difluorobenzenesulfonamide]
pKa ([1]; first of four pKa values): 2.7
pKa ([1]; fourth of four pKa values): 11.8
Charge (dominant protonation state) ([1]; pH 5.81-8.85): Neutral (Zwitterion)
pKa ([1]; second of four pKa values): 5.81
pKa ([1]; third of four pKa values): 8.85
solubility ([2]; ACN, 50 °C, organic solvent or mixture, read-out: Solubility at 50° C.): < 1000 µg/mL
solubility ([2]; ACN, organic solvent or mixture, read-out: Solubility at RT): < 1000 µg/mL
solubility ([2]; DCM, 50 °C, organic solvent or mixture, read-out: Solubility at 50° C.): < 1000 µg/mL
solubility ([2]; DCM, organic solvent or mixture, read-out: Solubility at RT): < 1000 µg/mL
solubility ([2]; DMF, organic solvent or mixture, read-out: Solubility at RT): 33000 µg/mL (≈ 65.3 mM)
solubility ([2]; DMSO, organic solvent or mixture, read-out: Solubility at RT): 41000 µg/mL (≈ 81.1 mM)
solubility ([2]; EtOAc, 50 °C, organic solvent or mixture, read-out: Solubility at 50° C.): < 3000 µg/mL
solubility ([2]; EtOAc, organic solvent or mixture, read-out: Solubility at RT): < 3000 µg/mL
solubility ([2]; EtOH, 50 °C, organic solvent or mixture, read-out: Solubility at 50° C.): < 2000 µg/mL
solubility ([2]; EtOH, organic solvent or mixture, read-out: Solubility at RT): < 2000 µg/mL
solubility ([2]; IPA, 50 °C, organic solvent or mixture, read-out: Solubility at 50° C.): < 2000 µg/mL
solubility ([2]; IPA, organic solvent or mixture, read-out: Solubility at RT): < 2000 µg/mL
solubility ([2]; MTBE, 50 °C, organic solvent or mixture, read-out: Solubility at 50° C.): < 2000 µg/mL
solubility ([2]; MTBE, organic solvent or mixture, read-out: Solubility at RT): < 2000 µg/mL
solubility ([2]; MeOH, 50 °C, organic solvent or mixture, read-out: Solubility at 50° C.): > 1000 µg/mL
solubility ([2]; MeOH, organic solvent or mixture, read-out: Solubility at RT): < 1000 µg/mL
solubility ([2]; THF, 50 °C, organic solvent or mixture, read-out: Solubility at 50° C.): > 1000 µg/mL
solubility ([2]; THF, organic solvent or mixture, read-out: Solubility at RT): < 1000 µg/mL
solubility ([2]; acetone, 50 °C, organic solvent or mixture, read-out: Solubility at 50° C.): < 1000 µg/mL
solubility ([2]; acetone, organic solvent or mixture, read-out: Solubility at RT): < 1000 µg/mL
solubility ([2]; water, 50 °C, water, read-out: Solubility at 50° C.): < 2000 µg/mL
solubility ([2]; water, read-out: Solubility at RT): < 2000 µg/mL

Cc1n[nH]c2nc(-c3ccc(NS(=O)(=O)c4cc(F)ccc4F)c(F)c3)nc(NCCN(C)C)c12 [Compound 2]
Solubility in water ([3]; water): < 1000 µg/mL
Post-DVS XRPD [4]: No change
wt % gain (DVS) ([4]; from 5 to 95% RH): 0.4 wt %

Cc1n[nH]c2nc(-c3ccc(NS(=O)(=O)c4cc(F)ccc4F)c(F)c3)nc(NCCN(C)C)c12.Cl [Compound 3 Form A]
solubility at 1 day ([3]; water, thermodynamic from solid): < 1000 µg/mL
Post-DVS XRPD [4]: No change
wt % gain (DVS) ([4]; from 5 to 96% RH): 2.1 wt %

Cc1n[nH]c2nc(-c3ccc(NS(=O)(=O)c4cc(F)ccc4F)c(F)c3)nc(NCCN(C)C)c12.Cl [Compound 3 Form D]
water activity (aw) at which the form is stable / the most stable form [5]: lower than 0.6
hygroscopicity [4]: slightly hygroscopic
wt % gain (DVS) ([4]; first value of '1.5 wt % and 1.7 wt % gain from 80 to 90% RH'): 1.5 wt %
Reversibility (DVS) [4]: Minor hysteresis
relative stability among the crystalline forms [6]: most stable form
Solid stability [7]: chemically and physically stable
Purity, Initial T0 [7]: 99.19%
Purity - 7 days, 60° C. [7]: 99.24%
Purity - 7 days, 40° C./75% RH [7]: 99.30%
XRPD, Initial T0 [7]: Form D
XRPD - 7 days, 60° C. [7]: Form D
XRPD - 7 days, 40° C./75% RH [7]: Form D

Cc1n[nH]c2nc(-c3ccc(NS(=O)(=O)c4cc(F)ccc4F)c(F)c3)nc(NCCN(C)C)c12.Cl [Compound 3 Form E]
XRPD Resulting Form ([8]; Heated to 114° C. at 10° C./min, and cooled to 25° C. at 5° C./min): Form E
XRPD Resulting Form ([8]; Heated to 160° C. at 10° C./min, and cooled to 25° C. at 5° C./min): Form D

Cc1n[nH]c2nc(-c3ccc(NS(=O)(=O)c4cc(F)ccc4F)c(F)c3)nc(NCCN(C)C)c12 [Compound 4 Form A]
solubility ([3]; MTBE, organic solvent or mixture, thermodynamic from solid, MTBE at RT): < 2000 µg/mL
Solubility in water ([3]; water): > 25000 µg/mL
physical stability on drying ([9]; vacuum oven for a day at 62-72° C.): retain its crystalline form
Comments: hygroscopicity (DVS) [4]: Hygroscopic
hygroscopicity [4]: hygroscopic
Post-DVS XRPD [4]: No change
wt % gain (DVS) ([4]; from 5 to 75% RH): 1.3 wt %
wt % gain (DVS) ([4]; from 75 to 96% RH): 3.2 wt %
Reversibility (DVS) [4]: Reversible

Cc1n[nH]c2nc(-c3ccc(NS(=O)(=O)c4cc(F)ccc4F)c(F)c3)nc(NCCN(C)C)c12 [Compound 4 Form C + trace Form B]
XRPD Resulting Form ([8]; Heated to 175° C. at 10° C./min, and cooled to 25° C. at 5° C./min): Form B (LC)

Cc1n[nH]c2nc(-c3ccc(NS(=O)(=O)c4cc(F)ccc4F)c(F)c3)nc(NCCN(C)C)c12 [Compound 4 Form D]
XRPD Resulting Form ([8]; Heated to 140° C. at 10° C./min, and cooled to 25° C. at 5° C./min): Form D
XRPD Resulting Form ([8]; Heated to 210° C. at 10° C./min, and cooled to 25° C. at 5° C./min): Form F
hygroscopicity [4]: slightly hygroscopic
Post-DVS XRPD [4]: No change
wt % gain (DVS) ([4]; at 80% RH (25° C.)): 0.99 wt %
water uptake (DVS) ([4]; at 80% RH, 25° C.): 0.99%
relative stability among the crystalline forms [6]: most stable form
Solid stability [7]: chemically and physically stable
Purity, Initial T0 [7]: 99.29%
Purity - 7 days, 60° C. [7]: 99.17%
Purity - 7 days, 40° C./75% RH [7]: 99.29%
XRPD, Initial T0 [7]: Form D
XRPD - 7 days, 60° C. [7]: Form D
XRPD - 7 days, 40° C./75% RH [7]: Form D

Cc1n[nH]c2nc(-c3ccc(NS(=O)(=O)c4cc(F)ccc4F)c(F)c3)nc(NCCN(C)C)c12 [Compound 4 Form E]
form conversion after drying ([9]; obtained by cooling in NMP from 50° C. to 2° C.): converted to Form D
